# Assay results as given in patent US20210196724A1, “BIARYL COMPOSITIONS AND METHODS FOR MODULATING A KINASE CASCADE” (Athenex, Inc., priority 2016, published 2021).
# Like-named read-outs stand apart in the source and are kept apart here.
# Columns and labels:
# OVCAR-3 cells = assay: CellTiter-Glo cell viability, OVCAR-3; type: cell-based; settings: 72 h; for GI50: read-out: Absolute GI50; for IC50: read-out: Absolute IC50
# Procedure: (§1) The cell viability of 50 cancer cell lines was studied after treatment with Compound 121. Inhibition concentration values at 50% (IC50) were determined using CellTiter-Glo luminescent cell viability assay after incubation with different compound concentrations. GI50 values were determined according to the examples described above. Each cell line was treated with Compound 121, a standard chemotherapy drug as a reference control, and culture medium as a vehicle control.
# (§2) All cells were cultured in media supplemented with 10-15% FBS at 37° C. in the presence of 5% CO2 and at 95% humidity. The culture medium was purchased from GIBCO or Sigma, USA. Cisplatin was chosen as the reference control and purchased from Hospira Australia Pty Ltd. The cell lines studied are presented in Table 5.
# (§3) Cells were harvested during a logarithmic growth period and cell number count was determined using Count-star. Cell concentrations were adjusted to 4.44×10^4 cells/mL with respective culture medium. 90 μL of cell suspensions were added to two 96-well plates (plates A and B) with a final cell density of 4×10^3 cells/well.
# (§4) 10 μL of culture medium was added to each well of plate A for TO reading. The plate was allowed to equilibrate at room temperature for approximately 30 min. 50 μL of CellTiter-Glo was added to each well and the contents were mixed for 5 min on an orbital shaker to induce cell lysis. The plate was allowed to incubate at room temperature for 20 min to stabilize luminescent signal.
# (§5) 10 μM Compound 121 in media was serially diluted 3.16-fold to achieve 9 dose levels. Similarly, 100 μM reference control in media was serially diluted 3.16-fold to prepare reference control solutions. 10 μL drug solution and 10 μL of reference control was dispensed into each well in plate B.
# (§6) Test plate B was incubated for 72 h in a humidified incubator at 37° C. in the presence of 5% CO2 and then subjected to CTG assay. The plate was allowed to equilibrate at room temperature for about 30 min. 50 μL of CellTiter-Glo was added to each well and the contents were mixed for 5 min on an orbital shaker to induce cell lysis. The plate was allowed to incubate at room temperature for 20 min to stabilize luminescent signal.
# (§7) IC50 and GI50 values for each of the 50 cell lines are presented in Table 6 and were calculated based on the dose-response curves depicted in FIGS. 1-50. The dose-response curves were fitted using nonlinear regression model with a sigmoidal dose response. The formula for calculating survival rate was calculated by the formula:
# (§8) Survival rate (%)=(LumTest article−LumMedium control)/(LumNone treated−LumMedium control)×100.
# SK-OV-3 cells = assay: CellTiter-Glo cell viability, SK-OV-3; type: cell-based; settings: 72 h; for GI50: read-out: Absolute GI50; for IC50: read-out: Absolute IC50
# Procedure: as §1, §2, §3, §4, §5, §6, §7, §8
# HT-1376 cells = assay: CellTiter-Glo cell viability, HT-1376; type: cell-based; settings: 72 h; for GI50: read-out: Absolute GI50; for IC50: read-out: Absolute IC50
# Procedure: as §1, §2, §3, §4, §5, §6, §7, §8
# HT-29 cells = assay: CellTiter-Glo cell viability, HT-29; type: cell-based; settings: 72 h; for GI50: read-out: Absolute GI50; for IC50: read-out: Absolute IC50
# Procedure: as §1, §2, §3, §4, §5, §6, §7, §8
# 786-O cells = assay: CellTiter-Glo cell viability, 786-O; type: cell-based; settings: for GI50: read-out: Absolute GI50; for IC50: read-out: Absolute IC50
# Procedure: as §1, §2, §3, §4, §5, §6, §7, §8
# 22Rv1 cells = assay: CellTiter-Glo cell viability, 22Rv1; type: cell-based; settings: 72 h; for GI50: read-out: Absolute GI50; for IC50: read-out: Absolute IC50
# Procedure: as §1, §2, §3, §4, §5, §6, §7, §8
# SCC-4 cells = assay: CellTiter-Glo cell viability, SCC-4; type: cell-based; settings: 72 h; for GI50: read-out: Absolute GI50; for IC50: read-out: Absolute IC50
# Procedure: as §1, §2, §3, §4, §5, §6, §7, §8
# A-673 cells = assay: CellTiter-Glo cell viability, A-673; type: cell-based; settings: for GI50: read-out: Absolute GI50; for IC50: read-out: Absolute IC50
# Procedure: as §1, §2, §3, §4, §5, §6, §7, §8
# [1] = system: GL261 cells, sub-cutaneous; assay: Re-challenge of long-term survivors with sub-cutaneous GL261 cells; type: in vivo, C57BL/6 mice; settings: long term survival (LTS) mice after Compound 121 oral therapy, not treated in re-challenge phase
# Procedure: The anti-tumor activity of Compound 121, as a single agent, was studied in the GL261 murine model of human glioblastoma. Murine GL261 glioblastoma cells were injected intra-cranially into syngeneic, immune-competent hosts (C57BL/6). In order for oral therapeutics to be effective, it is required that the therapeutic be able to cross the blood-brain barrier in order to achieve sufficient levels in the brain to exert an anti-tumor effect. Survival was the major endpoint for the study. The mice either succumbed to the tumor or were euthanized based on severity of tumor-dependent morbidity. Mice that achieved long-term survival (>80 days) were re-challenged with a sub-cutaneous injection of GL261 cells to assess the development of a durable immune response to GL261. Mice that underwent the re-challenge phase were not treated with Compound 121.
# Re-challenge phase: Mice surviving past 80 days were injected with GL261 cell subcutaneously on Day 93. A control group (naïve C57BL/6 mice, N=5) were also injected with GL261 cells subcutaneously. Tumor volumes were calculated from bidimensional caliper measurements every 3 to 4 days. Further, all mice were administered oral doses of a Bifidobacterium mixture on three separate occasions. The objective of the administration of Bifidobacterium was to transiently modify the intestinal microbiome as a means to influence the immune response to GL261. […]
# [2] = top conc. 10 μM Compound 121, 100 μM cisplatin
# [3] = 72 h, top conc. 10 μM Compound 121, 100 μM cisplatin
# [4] = Homo sapiens, top conc. 10 μM Compound 121, 100 μM cisplatin
structure (smiles),measurement,setting,value
"N.N.[Cl][Pt][Cl] [Cisplatin, reference compound]",GI50,OVCAR-3 cells,3810 nM
same,IC50,OVCAR-3 cells,4290 nM
same,% inhibition at top conc.,OVCAR-3 cells; [2],91.14%
same,GI50,SK-OV-3 cells,5080 nM
same,IC50,SK-OV-3 cells,6690 nM
same,% inhibition at top conc.,SK-OV-3 cells; [2],81.79%
same,GI50,HT-1376 cells,2640 nM
same,IC50,HT-1376 cells,3260 nM
same,% inhibition at top conc.,HT-1376 cells; [2],91.76%
same,GI50,HT-29 cells,8780 nM
same,IC50,HT-29 cells,9800 nM
same,% inhibition at top conc.,HT-29 cells; [2],89.05%
same,GI50,786-O cells; 72 h,1600 nM
same,IC50,786-O cells; 72 h,1770 nM
same,% inhibition at top conc.,786-O cells; [3],98.46%
same,GI50,22Rv1 cells,1880 nM
same,IC50,22Rv1 cells,3070 nM
same,% inhibition at top conc.,22Rv1 cells; [2],98.28%
same,GI50,SCC-4 cells,3430 nM
same,IC50,SCC-4 cells,4150 nM
same,% inhibition at top conc.,SCC-4 cells; [2],99.29%
same,GI50,A-673 cells; 72 h,400 nM
same,IC50,A-673 cells; 72 h,1120 nM
same,% inhibition at top conc.,A-673 cells; [3],99.59%
Cc1cc(N2CCOC[C@@H]2C)ccc1-c1ccc(CC(=O)NCc2ccc(F)cc2)nc1 [Compound 121],GI50,OVCAR-3 cells; Homo sapiens,5 nM
same,IC50,OVCAR-3 cells; Homo sapiens,6 nM
same,inhibition at 10 µM,OVCAR-3 cells; [4],64.8%
same,GI50,SK-OV-3 cells; Homo sapiens,4 nM
same,IC50,SK-OV-3 cells; Homo sapiens,4 nM
same,inhibition at 10 µM,SK-OV-3 cells; [4],66.2%
same,GI50,HT-1376 cells; Homo sapiens,6 nM
same,IC50,HT-1376 cells; Homo sapiens,9 nM
same,inhibition at 10 µM,HT-1376 cells; [4],53%
same,GI50,HT-29 cells; Homo sapiens,4 nM
same,IC50,HT-29 cells; Homo sapiens,4 nM
same,inhibition at 10 µM,HT-29 cells; [4],78.5%
same,GI50,"786-O cells; Homo sapiens, 786-0, 72 h",5 nM
same,IC50,"786-O cells; Homo sapiens, 786-0, 72 h",5 nM
same,inhibition at 10 µM,"786-O cells; Homo sapiens, 786-0, 72 h, top conc. 10 μM Compound 121, 100 μM cisplatin",85.3%
same,GI50,22Rv1 cells; Homo sapiens,5 nM
same,IC50,22Rv1 cells; Homo sapiens,6 nM
same,inhibition at 10 µM,22Rv1 cells; [4],89%
same,GI50,SCC-4 cells; Homo sapiens,5 nM
same,IC50,SCC-4 cells; Homo sapiens,6 nM
same,inhibition at 10 µM,SCC-4 cells; [4],86.1%
same,GI50,"A-673 cells; Homo sapiens, A673, 72 h",3 nM
same,IC50,"A-673 cells; Homo sapiens, A673, 72 h",4 nM
same,inhibition at 10 µM,"A-673 cells; Homo sapiens, A673, 72 h, top conc. 10 μM Compound 121, 100 μM cisplatin",86.1%
same,Tumor growth after sub-cutaneous re-challenge with GL261 cells,[1],Tumors failed to grow in both LTS mice
